Results reported in ChEMBL document CHEMBL1135163, “Design, synthesis, and evaluation of postulated transient intermediate and substrate analogues as inhibitors of 4-hydroxyphenylpyruvate dioxygenase” (Bioorg Med Chem Lett, 2002).

These compounds were tested against 4-hydroxyphenylpyruvate dioxygenase (Sus scrofa, UniProt Q02110) (assay: In vitro inhibition against of 4-Hydroxyphenylpyruvate dioxygenase (4-HPPD) from pig liver by the enol borate method).
Chain of 4-hydroxyphenylpyruvate dioxygenase (Q02110 whole entry): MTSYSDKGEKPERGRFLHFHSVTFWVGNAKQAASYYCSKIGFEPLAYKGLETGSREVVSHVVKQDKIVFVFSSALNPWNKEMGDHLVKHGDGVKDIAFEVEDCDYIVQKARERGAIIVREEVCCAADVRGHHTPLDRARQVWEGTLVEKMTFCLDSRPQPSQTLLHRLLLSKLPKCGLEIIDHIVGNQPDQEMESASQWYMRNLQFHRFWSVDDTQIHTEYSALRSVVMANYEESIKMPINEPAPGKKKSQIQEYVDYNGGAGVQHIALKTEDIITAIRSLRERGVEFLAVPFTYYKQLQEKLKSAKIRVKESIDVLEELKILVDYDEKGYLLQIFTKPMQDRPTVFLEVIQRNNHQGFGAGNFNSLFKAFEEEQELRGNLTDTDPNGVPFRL
For `CCOC(=O)COc1ccc(O)cc1`, the IC50 was 73 µM.
For `COC(=O)C1OC1(C)c1ccccc1` (stereo unspecified), the IC50 was 120 µM.
In the case of `COC(=O)CC12OC1C(=O)C(OC)=CC2=O` (stereo unspecified), the IC50 is reported as 500 µM.
`CC(Oc1ccc(O)cc1)C(=O)O` (stereo unspecified) gave an IC50 of 93 µM.
`COC(=O)COc1ccc(O)cc1` showed an IC50 of 223 µM.
For `C=C(c1ccccc1)C(O)C(=O)O` (stereo unspecified), the IC50 was greater than 900 µM.
With `O=C1OCC(c2ccccc2)=C1O` the IC50 was 0.5 µM.
For `C=C(c1ccccc1)C(O)C(=O)OC` (stereo unspecified), the IC50 was greater than 900 µM.
Work on `CCOC(=O)C(C)Oc1ccc(O)cc1` (stereo unspecified) yielded an IC50 of 588 µM.
`O=C(O)COc1ccc(O)cc1` gave an IC50 of 6 µM.
`COC(=O)CC1=CC(=O)C(OC)=CC1=O` gave an IC50 of 150 µM.
